“And” between values parts separate entries of the source, which are not always exact repeats. Equal values may be shown once. Read-outs that look alike come from different tables or passages of the source. One block for each molecule: values may come before it.
Test system: non-senescent control IMR90 ER:RAS cells
Assay: Nuclei count (Hoechst, high content imaging) senolytic assay, OIS model, non-senescent control cells
Type: cell-based, human
From the text: To test for senolytic activity, we compared the effect of each compound on the total cell number (automated high content image-based analysis of total number of nuclei per well) in non-senescent and senescent IMR90 ER:RAS cultures treated with the top hits from the computational screen (Figs. 2e and 3a–d and Supplementary Fig. 4a–c). The drop in cell number compared to untreated controls is indicated by the nuclei count and reflects cell death[13],[15]. As positive control, we employed ouabain, a cardiac glycoside with well characterised senolytic activity.
We performed experimental validation of the compounds with z-score > 8 (Fig. 2e). […] We employed two cellular models of senescence: one of OIS and a second one of TIS. For the OIS case, we utilised IMR90 ER:RAS cells with 4-OHT at 100 nM. […] For the TIS model, we used A549 cells with etoposide at 100 μM. The exposure of the cells to etoposide lasted 48 h, after which period the cells were cultivated for a further three days with normal media.
IMR90 (CCL-186) human foetal lung fibroblasts and A549 (CCL-185) human lung adenocarcinoma cells were obtained from the American Type Culture Collection (ATCC, Manassas, VA). The cell lines were confirmed to be mycoplasma negative (Lonza MycoAlert, cat #LT07-118). IMR90 ER:RAS is a derivative of IMR90 cells expressing a switchable version of oncogenic H-Ras[84]. IMR90 ER:RAS and A549 cells were maintained in Dulbecco’s Modified Eagle Medium (DMEM, ThermoFisher) supplemented with foetal bovine serum (10%), L-glutamine (2 mM, ThermoFisher), and antibiotic-antimycotic solution (1%, ThermoFisher) and incubated under standard tissue culture conditions (37 °C and 5% CO2). For induction of the senescent phenotype, IMR90-ER:RAS cells were cultured in hydroxytamoxifen (4-OHT) (Sigma) added media at 100 nM final concentration. IMR90 were kept in culture for over 27 passages for replicative senescence. Cells were tested for mycoplasma on a regular basis.
Cells were seeded (50 μL per well) into 384-well plates (IMR90 ER:RAS cells in Nunc Optical Bottom Polybase Microplates [#142761, Thermo Scientific, Rochester, NY] and A549 cells in CELLSTAR Cell Culture Microplates [#781091, Greiner Bio-One, Kremsmünster, Austria]). Cells were incubated under standard tissue culture conditions for 24 h before the addition of compounds. Passage 14 IMR90 ER:RAS cells were seeded at 1300 cells per well in the control condition, and at 1600 cells per well in the senescent case. Passage 34 A549 cells were seeded at 7000 cells per well in the control condition, and at 10,000 cells per well in the senescent case.
Dose response plates were prepared with a DMSO control and a 10-point […] concentration range, and added to the compounds using a D300e digital dispenser (Tecan Trading AG, Switzerland) at a final concentration of between 10 μM and 10 nM. Every screened condition was carried out in triplicate. After 72 h of incubation with exposure to the compounds, cells were fixed by the addition of an equal volume of formaldehyde (8%, 50 μL; #BP531-500, Fisher Bioreagents, Fisher Scientific, Loughborough, Leicestershire) to the existing media, incubated at room temperature (30 min), and washed three times in phosphate-buffered saline (PBS). Cells were then permeabilised in Triton-X100 (0.1%, 50 μL) and incubated at room temperature (30 min) followed by three more washes with PBS.
Cells were stained with Hoechst 33342 for nuclei count (excitation/emission wavelength at 387/447 […], DAPI channel, original concentration at 10 mg/ml, final concentration at 2 μg/ml; H1399, Molecular Probes, Eugene, OR). The staining solution was prepared in bovine serum albumin solution (10%). The staining solution was added to each well (30 μL) and incubated in the dark at room temperature (30 min), followed by three washes with PBS and no final aspiration. Plates were foil sealed.

[1] = Homo sapiens, IMR-90, 72 h, Control, log (dose) [M] -5, 72 h, mean n=3 (Fig 3C), read-out: Mean % Cell Survival
[2] = Homo sapiens, IMR-90, 72 h, Control, log (dose) [M] -5.33, 72 h, mean n=3 (Fig 3C), read-out: Mean % Cell Survival
[3] = Homo sapiens, IMR-90, 72 h, Control, log (dose) [M] -5.66, 72 h, mean n=3 (Fig 3C), read-out: Mean % Cell Survival
[4] = Homo sapiens, IMR-90, 72 h, Control, log (dose) [M] -6, 72 h, mean n=3 (Fig 3C), read-out: Mean % Cell Survival
[5] = Homo sapiens, IMR-90, 72 h, Control, log (dose) [M] -6.33, 72 h, mean n=3 (Fig 3C), read-out: Mean % Cell Survival
[6] = Homo sapiens, IMR-90, 72 h, Control, log (dose) [M] -6.66, 72 h, mean n=3 (Fig 3C), read-out: Mean % Cell Survival
[7] = Homo sapiens, IMR-90, 72 h, Control, log (dose) [M] -7, 72 h, mean n=3 (Fig 3C), read-out: Mean % Cell Survival
[8] = Homo sapiens, IMR-90, 72 h, Control, log (dose) [M] -7.33, 72 h, mean n=3 (Fig 3C), read-out: Mean % Cell Survival
[9] = Homo sapiens, IMR-90, 72 h, Control, log (dose) [M] -7.66, 72 h, mean n=3 (Fig 3C), read-out: Mean % Cell Survival
[10] = Homo sapiens, IMR-90, 72 h, Control, log (dose) [M] -8, 72 h, mean n=3 (Fig 3C), read-out: Mean % Cell Survival

SMILES: CC(C)=CCc1c(O)cc2oc3cc(O)c(O)c(CC=C(C)C)c3c(=O)c2c1O [Gamma mangostin, gamma mangostin]
% Cell Survival (Control cells, log (dose) [M] -5, individual replicates, SUP FIG 4C): 83.3507% and 108.05% and 79.5367% and 95.8097% | % Cell Survival (Control cells, log (dose) [M] -5.33, individual replicates, SUP FIG 4C): 87.0968% and 96.0317% and 81.9498% and 89.128% | % Cell Survival (Control cells, log (dose) [M] -5.66, individual replicates, SUP FIG 4C): 85.64% and 147.846% and 85.3282% and 103.058% | % Cell Survival (Control cells, log (dose) [M] -6, individual replicates, SUP FIG 4C): 61.4984% and 93.424% and 84.0734% and 96.1495% | % Cell Survival (Control cells, log (dose) [M] -6.33, individual replicates, SUP FIG 4C): 89.5942% and 95.6916% and 116.216% and 74.9717% | % Cell Survival (Control cells, log (dose) [M] -6.66, individual replicates, SUP FIG 4C): 89.282% and 97.3923% and 91.7954% and 95.8097% | % Cell Survival (Control cells, log (dose) [M] -7, individual replicates, SUP FIG 4C): 92.924% and 97.5057% and 90.1544% and 99.6602% | % Cell Survival (Control cells, log (dose) [M] -7.33, individual replicates, SUP FIG 4C): 93.7565% and 97.2789% and 93.4363% and 109.513% | % Cell Survival (Control cells, log (dose) [M] -7.66, individual replicates, SUP FIG 4C): 96.9823% and 99.8866% and 98.9382% and 108.494% | % Cell Survival (Control cells, log (dose) [M] -8, individual replicates, SUP FIG 4C): 107.7% and 97.0522% and 93.3398% and 109.173% | Mean % Cell Survival (Control, log (dose) [M] -5, 72 h, mean n=3 (Fig 3C)): 91.6867% | Mean % Cell Survival (Control, log (dose) [M] -5.33, 72 h, mean n=3 (Fig 3C)): 88.5516% | Mean % Cell Survival (Control, log (dose) [M] -5.66, 72 h, mean n=3 (Fig 3C)): 105.468% | Mean % Cell Survival (Control, log (dose) [M] -6, 72 h, mean n=3 (Fig 3C)): 83.7863% | Mean % Cell Survival (Control, log (dose) [M] -6.33, 72 h, mean n=3 (Fig 3C)): 94.1184% | Mean % Cell Survival (Control, log (dose) [M] -6.66, 72 h, mean n=3 (Fig 3C)): 93.5698% | Mean % Cell Survival (Control, log (dose) [M] -7, 72 h, mean n=3 (Fig 3C)): 95.0611% | Mean % Cell Survival (Control, log (dose) [M] -7.33, 72 h, mean n=3 (Fig 3C)): 98.4962% | Mean % Cell Survival (Control, log (dose) [M] -7.66, 72 h, mean n=3 (Fig 3C)): 101.075% | Mean % Cell Survival (Control, log (dose) [M] -8, 72 h, mean n=3 (Fig 3C)): 101.816% | % Cell Survival (Control, log (dose) [M] -5): 92.5926% and 96.693% and 91.9267% | % Cell Survival (Control, log (dose) [M] -5.33): 94.2308% and 86.4127% and 82.768% | % Cell Survival (Control, log (dose) [M] -5.66): 90.6695% and 83.6808% and 81.9539% | % Cell Survival (Control, log (dose) [M] -6): 85.6125% and 87.1316% and 81.6147% | % Cell Survival (Control, log (dose) [M] -6.33): 95.7977% and 84.3997% and 85.8209% | % Cell Survival (Control, log (dose) [M] -6.66): 91.7379% and 85.9813% and 84.5319% | % Cell Survival (Control, log (dose) [M] -7): 95.6553% and 92.739% and 90.502% | % Cell Survival (Control, log (dose) [M] -7.33): 96.8661% and 91.0137% and 90.4342% | % Cell Survival (Control, log (dose) [M] -7.66): 96.7236% and 96.7649% and 94.3691% | % Cell Survival (Control, log (dose) [M] -8): 100.783% and 103.882% and 95.7938%

SMILES: COc1cc(/C=C/C(=O)O[C@H]2CC[C@]34C[C@]35CC[C@]3(C)[C@@H]([C@H](C)CCC=C(C)C)CC[C@@]3(C)[C@@H]5CC[C@H]4C2(C)C)ccc1O [Gamma oryzanol, gamma oryzanol]
viability at 10 µM [1]: 87.1% | viability at 4.677 µM [2]: 92.9% | viability at 2.188 µM [3]: 89.6% | viability at 1 µM [4]: 86.2% | viability at 0.4677 µM [5]: 98.4% | viability at 0.2188 µM [6]: 99.1% | viability at 0.1 µM [7]: 109% | viability at 0.04677 µM [8]: 133% | viability at 0.02188 µM [9]: 118% | viability at 0.01 µM [10]: 115% | viability at 0.2188 µM (Homo sapiens, IMR-90, Control cells, log (dose) [M] -6.66, individual replicates, SUP FIG 4C, read-out: % Cell Survival): 93.2% | viability at 10 µM (Homo sapiens, IMR-90, Control, log (dose) [M] -5, read-out: % Cell Survival): 113% | viability at 4.68 µM (Homo sapiens, IMR-90, Control, log (dose) [M] -5.33, read-out: % Cell Survival): 105% | viability at 0.1 µM (Homo sapiens, IMR-90, Control, log (dose) [M] -7, read-out: % Cell Survival): 103% | viability at 0.04677 µM (Homo sapiens, IMR-90, Control, log (dose) [M] -7.33, read-out: % Cell Survival): 103% | viability at 0.0219 µM (Homo sapiens, IMR-90, Control, log (dose) [M] -7.66, read-out: % Cell Survival): 104% | viability at 0.01 µM (Homo sapiens, IMR-90, Control, log (dose) [M] -8, read-out: % Cell Survival): 100%

IC50 (Homo sapiens, IMR-90, OIS model, non-senescent IMR90 ER:RAS, nuclei count, 72 h): 26 µM
SMILES: COc1cc(O)c2c(=O)cc(-c3ccc(OC)c(-c4c(O)cc(O)c5c(=O)cc(-c6ccc(O)cc6)oc45)c3)oc2c1 [Ginkgetin, ginkgetin]
viability at 10 µM [1]: 37.6% | viability at 4.677 µM [2]: 87% | viability at 2.188 µM [3]: 87.7% | viability at 1 µM [4]: 87.1% | viability at 0.4677 µM [5]: 85.5% | viability at 0.2188 µM [6]: 86.2% | viability at 0.1 µM [7]: 85.1% | viability at 0.04677 µM [8]: 87.3% | viability at 0.02188 µM [9]: 88.8% | viability at 0.01 µM [10]: 93% | viability at 4.677 µM (Homo sapiens, IMR-90, control, log (dose) [M] -5.33, individual replicates (Fig 3D), read-out: % Cell Survival): 83% | viability at 2.188 µM (Homo sapiens, IMR-90, control, log (dose) [M] -5.66, individual replicates (Fig 3D), read-out: % Cell Survival): 83.6% | viability at 1 µM (Homo sapiens, IMR-90, control, log (dose) [M] -6, individual replicates (Fig 3D), read-out: % Cell Survival): 78.9% | viability at 0.4677 µM (Homo sapiens, IMR-90, control, log (dose) [M] -6.33, individual replicates (Fig 3D), read-out: % Cell Survival): 82.5% | viability at 0.2188 µM (Homo sapiens, IMR-90, control, log (dose) [M] -6.66, individual replicates (Fig 3D), read-out: % Cell Survival): 81.2% | viability at 0.1 µM (Homo sapiens, IMR-90, control, log (dose) [M] -7, individual replicates (Fig 3D), read-out: % Cell Survival): 74.3% | viability at 0.01 µM (Homo sapiens, IMR-90, control, log (dose) [M] -8, individual replicates (Fig 3D), read-out: % Cell Survival): 85.3%

From PMC10257182, “Discovery of senolytics using machine learning” (Nature Communications, 2023)
